Experimental findings from PMC6316187, “Synergistic AML Cell Death Induction by Marine Cytotoxin (+)-1(R), 6(S), 1’(R), 6’(S), 11(R), 17(S)-Fistularin-3 and Bcl-2 Inhibitor Venetoclax” (Marine Drugs, 2018) are described below.

The target in the assay is DNA methyltransferase 1 (DNMT1) (Homo sapiens, UniProt P26358). Nature of the assay: in vitro DNMT activity/inhibition assay (Active Motif), […] ng purified DNMT1, colorimetric; […] compound. The assay is classed as biochemical.

As usually defined, the inhibition is the percentage by which the read-out fell short of the control. High values mean a strong effect, low ones a weak effect.

Sequence of DNA methyltransferase 1 (DNMT1) (P26358 whole entry): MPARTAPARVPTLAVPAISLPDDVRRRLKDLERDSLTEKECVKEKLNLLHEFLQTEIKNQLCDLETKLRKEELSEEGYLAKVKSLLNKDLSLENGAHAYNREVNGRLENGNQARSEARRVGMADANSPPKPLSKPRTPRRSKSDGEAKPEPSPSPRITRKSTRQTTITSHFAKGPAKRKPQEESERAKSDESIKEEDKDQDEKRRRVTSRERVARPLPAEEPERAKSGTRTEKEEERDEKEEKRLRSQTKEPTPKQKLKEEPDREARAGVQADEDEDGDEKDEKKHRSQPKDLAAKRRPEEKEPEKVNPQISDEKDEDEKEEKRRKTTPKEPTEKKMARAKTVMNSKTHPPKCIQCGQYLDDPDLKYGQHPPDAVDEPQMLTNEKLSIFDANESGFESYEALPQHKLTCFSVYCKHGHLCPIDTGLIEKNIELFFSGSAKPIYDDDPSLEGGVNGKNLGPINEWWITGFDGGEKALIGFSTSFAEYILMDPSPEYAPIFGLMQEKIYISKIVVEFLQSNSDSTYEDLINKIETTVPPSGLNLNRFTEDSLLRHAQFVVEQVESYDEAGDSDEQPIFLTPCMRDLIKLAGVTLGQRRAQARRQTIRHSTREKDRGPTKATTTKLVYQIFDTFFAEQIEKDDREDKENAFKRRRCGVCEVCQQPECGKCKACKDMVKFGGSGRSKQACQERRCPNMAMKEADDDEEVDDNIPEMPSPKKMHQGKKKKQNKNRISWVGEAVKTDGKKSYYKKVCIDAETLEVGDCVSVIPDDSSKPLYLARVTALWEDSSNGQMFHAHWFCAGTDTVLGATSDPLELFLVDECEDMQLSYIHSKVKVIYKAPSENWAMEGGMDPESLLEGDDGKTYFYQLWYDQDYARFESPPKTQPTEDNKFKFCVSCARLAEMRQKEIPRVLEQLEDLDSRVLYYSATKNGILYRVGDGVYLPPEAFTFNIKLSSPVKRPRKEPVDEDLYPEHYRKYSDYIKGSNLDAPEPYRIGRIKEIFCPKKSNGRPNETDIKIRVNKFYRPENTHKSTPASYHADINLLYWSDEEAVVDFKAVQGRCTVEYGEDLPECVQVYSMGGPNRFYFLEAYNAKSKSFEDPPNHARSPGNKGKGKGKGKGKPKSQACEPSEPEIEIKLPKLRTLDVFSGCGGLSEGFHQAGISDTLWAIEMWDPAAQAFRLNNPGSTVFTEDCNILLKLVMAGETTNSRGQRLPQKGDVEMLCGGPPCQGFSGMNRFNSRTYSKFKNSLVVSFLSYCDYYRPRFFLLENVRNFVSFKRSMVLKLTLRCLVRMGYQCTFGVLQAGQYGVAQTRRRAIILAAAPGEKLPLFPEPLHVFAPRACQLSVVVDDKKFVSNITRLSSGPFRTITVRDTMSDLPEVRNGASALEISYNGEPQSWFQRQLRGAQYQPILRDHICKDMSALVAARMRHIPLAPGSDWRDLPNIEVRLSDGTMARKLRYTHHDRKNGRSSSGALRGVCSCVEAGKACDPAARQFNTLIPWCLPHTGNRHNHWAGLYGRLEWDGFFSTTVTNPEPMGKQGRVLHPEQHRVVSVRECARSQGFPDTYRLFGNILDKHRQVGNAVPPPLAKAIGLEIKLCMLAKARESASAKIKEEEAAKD

In turn, `COC1=C(Br)[C@H](O)[C@@]2(C=C1Br)CC(C(=O)NC[C@@H](O)COc1c(Br)cc([C@H](O)CNC(=O)C3=NO[C@]4(C=C(Br)C(OC)=C(Br)[C@@H]4O)C3)cc1Br)=NO2` [RS-F3, (+)-11(R), 17(S)-fistularin-3] gave an inhibition at 50 µM of roughly 25%.
